Experimental data as given in PubChem BioAssay (NCI).
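Compound exposure: 48 hours, 5 concentrations, 96-well plates. TGI denotes the concentration required for complete inhibition of growth.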

Legend:
Experiment in all cases: NCI anticancer screen, dose series, 48 h
A498 renal = system: A498 renal
COLO 205 colon = system: COLO 205 colon
SF-539 CNS = system: SF-539 CNS
SNB-19 CNS = system: SNB-19 CNS
MOLT-4 leukemia = system: MOLT-4 leukemia
SK-MEL-2 melanoma = system: SK-MEL-2 melanoma
786-0 renal = system: 786-0 renal
M14 melanoma = system: M14 melanoma
EKVX NSCLC = system: EKVX NSCLC
SK-MEL-5 melanoma = system: SK-MEL-5 melanoma
SW-620 colon = system: SW-620 colon
TK-10 renal = system: TK-10 renal
M19-MEL melanoma = system: M19-MEL melanoma
SN12C renal = system: SN12C renal
NCI-H460 lung = system: NCI-H460 lung
A549 NSCLC = system: A549 NSCLC
HT29 colon = system: HT29 colon
KM20L2 colon = system: KM20L2 colon
HL-60(TB) leukemia = system: HL-60(TB) leukemia
DMS 114 small cell lung = system: DMS 114 small cell lung
OVCAR-3 ovarian = system: OVCAR-3 ovarian
IGROV1 ovarian = system: IGROV1 ovarian
HCC-2998 colon = system: HCC-2998 colon
DMS 273 small cell lung = system: DMS 273 small cell lung
RPMI-8226 leukemia = system: RPMI-8226 leukemia
LXFL 529 NSCLC = system: LXFL 529 NSCLC
OVCAR-4 ovarian = system: OVCAR-4 ovarian
SK-OV-3 ovarian = system: SK-OV-3 ovarian
KM12 colon = system: KM12 colon
U251 CNS = system: U251 CNS
UO-31 renal = system: UO-31 renal
UACC-257 melanoma = system: UACC-257 melanoma
HOP-18 NSCLC = system: HOP-18 NSCLC
HOP-92 NSCLC = system: HOP-92 NSCLC
OVCAR-5 ovarian = system: OVCAR-5 ovarian
MALME-3M melanoma = system: MALME-3M melanoma
HOP-62 NSCLC = system: HOP-62 NSCLC
LOX IMVI melanoma = system: LOX IMVI melanoma
UACC-62 melanoma = system: UACC-62 melanoma
CAKI-1 renal = system: CAKI-1 renal
XF 498 CNS = system: XF 498 CNS
NCI-H23 lung = system: NCI-H23 lung
SF-268 CNS = system: SF-268 CNS
SF-295 CNS = system: SF-295 CNS
SNB-78 CNS = system: SNB-78 CNS
SK-MEL-28 melanoma = system: SK-MEL-28 melanoma
DLD-1 colon = system: DLD-1 colon
OVCAR-8 ovarian = system: OVCAR-8 ovarian
HCT-15 colon = system: HCT-15 colon
ACHN renal = system: ACHN renal
SNB-75 CNS = system: SNB-75 CNS
K-562 leukemia = system: K-562 leukemia
HCT-116 colon = system: HCT-116 colon
NCI-H226 lung = system: NCI-H226 lung
CCRF-CEM leukemia = system: CCRF-CEM leukemia
SR leukemia = system: SR leukemia
NCI-H522 lung = system: NCI-H522 lung
RXF 393 renal = system: RXF 393 renal

Measured: TGI

CCc1cc(C(=O)OC)cn1C(=N)c1ccc(Cl)cc1
not listed: SR leukemia | NCI-H522 lung | RXF 393 renal
> 100 µM: all other assays above

Cn1cc(C(=O)NCCC(=N)N)cc1NC(=O)C1=[N+](C)C=C(NC(=O)c2cccc(C(=O)NC3=CC(C(=O)Nc4cc(C(=O)NCCC(=N)N)cn4C)=[N+](C)C3)c2)C1
not listed: OVCAR-5 ovarian | SNB-78 CNS | HCT-116 colon
> 100 µM: all other assays above
